Measurements taken from patent publication US11931380B2, “Inhibition of diacylglycerol kinase to augment adoptive T cell transfer” (THE TRUSTEES OF THE UNIVERSITY OF PENNSYLVANIA, priority 2012, dated 2024).

What was measured:
DGK [1] = experiment: Lysis of EM-meso-luc cells by antigen-exposed human mesoCAR T cells with or without DGK inhibitors; type: cell-based; conditions: 5 μg/mL inhibitor, 18 hours, after 96 hours exposure to EM-meso
Method: Primary human T cells were obtained and mock infected or transduced with lentivirus expressing mesoCAR as previously described (Moon et al., 2011, Clin Cancer Res 17:4719-30). A total of 5×10^6 T cells were subsequently added to 24-well plates that had been seeded with 5×10^5 cells either from the epithelial mesothelioma (EM) human mesothelioma line or a stable derivative cell line, EM-meso, engineered to express high levels of mesothelin, in a 24-well dish. […] Cells were assessed for viability using Trypan blue, and 1×10^5 live T cells were cocultured with 5×10^3 EM-meso-luc cells expressing luciferase in 96-well plates in the presence or absence of the DGK inhibitors DGK1 (R59022) or DGK2 (R59949; Sigma) at 5 μg/mL. After 18 hours, remaining tumor cells were washed and lysed, and luminescence was evaluated. Cell lysate determinations were corroborated with visual estimate of remaining numbers of tumor cells.

DGK [2] = experiment: DGK inhibitor effect on killing activity of human CAR-TIL; type: cell-based; conditions: preliminary observations
Method: In addition, experiments were conducted to mimic potential human trials in which mice with established tumors were injected intravenously with 10^7 wild type T cells or the three types of DGK knockout T cells. […] Preliminary relevant observations in human CAR T cells have been recorded using a commercially available DGK inhibitor (R59022). Human mesothelin-CAR T cells mixed with human mesothelin tumor cells (at a 1:1 ratio) were injected into immunodeficient mice. The tumor growth was slowed, but not prevented by the CAR-T cells. After 2-3 weeks, tumors were harvested and the human CAR-T cells were purified. When these T cells (Tumor infiltrating lymphocytes, or TILs) are allowed to react with fresh tumors, they can kill only 5-10% of the tumor cells showing they are hypofunctional compared to freshly made CAR-T cells which kill 70% of tumor cells (FIG. 15).

DGK [3] = conditions: freshly isolated human TIL, renal cell cancers; cited from earlier work

Row | Structure (SMILES) | cytotoxicity of mesothelin-exposed mesoCAR T cells (DGK [1]) | function (killing activity) of human CAR-TIL (DGK [2]) | TIL function (DGK [3])
1 | Cc1nc2sccn2c(=O)c1CCN1CCC(=C(c2ccccc2)c2ccc(F)cc2)CC1 [R59022] | reverse the impaired cytotoxicity | augments function | improve TIL function
2 | O=c1c2ccccc2[nH]c(=S)n1CCN1CCC(=C(c2ccc(F)cc2)c2ccc(F)cc2)CC1 [R59949] | reverse the impaired cytotoxicity | – | –
